The source of these data is US20260274814A1, “THIENYL COMPOUNDS FOR THE TREATMENT OF A CENTRAL NERVOUS SYSTEM DISEASE OR DISORDER” (Coreterra Therapeutics, Inc., priority 2023, published 2026).

In the experiment the test system is mice. The experiment in a line: Neuropharmacological Assay (SmartCube): automated behavioral signature of compound-treated mice compared with a database of reference drug classes. The format is in vivo. The conditions noted are these: for minimal effective dose: Mus musculus, ip, read-out: MED; for minimal effective dose / MED: minimal effective dose: dose having 45% or more total activity in SmartCube, if only one dose tested; for minimal effective dose / MED / MED (minimal effective dose): i.p., that dose is shown; for AD / AG / AN / AP / AX / CE / HL / MS / PS / SH / UK: 3.0 mg/kg i.p., 15 min before test; for MED (minimal effective dose): dose having 45% or more total activity in SmartCube, if only one dose was tested. From the text: Neurosci. 2011 Sep. 9; 5: 103 (doi: 10.3389/fnins.2011.00103) (“Roberds”). As reported in Roberds, because psychiatric diseases generally result from disorders of cell-cell communication or circuitry, intact systems are useful in detecting improvement in disease-relevant endpoints. These endpoints are typically behavioral in nature, often requiring human observation and interpretation. To facilitate testing of multiple compounds for behavioral effects relevant to psychiatric disease, PsychoGenics, Inc. (Tarrytown, NY, “PGI”) developed SmartCube™ an automated system in which behaviors of compound-treated mice are captured by digital video and analyzed with computer algorithms. (D. Brunner et al. Drug Discov. Today 2002, 7:S107-S112). PGI Analytical Systems uses data from SmartCube™ to compare the behavioral signature of a test compound to a database of behavioral signatures obtained using a large set of diverse reference compounds. (The composition of the database as well as validation of the method is further described in Roberds). In this way, the neuropharmacological effects of a test compound can be predicted by similarity to major classes of compounds, such as antipsychotics, anxiolytics and antidepressants.
The SmartCube™ system produces an activity signature indicating the probability that the activity of the test compound at the administered dose matches a given class of neuropharmacological agents. (See, e.g., Roberds, FIGS. 2 and 3). The test compound is simultaneously compared against multiple classes of agents; thus, a separate probability is generated for each behavioral effect measured (e.g., anxiolytic activity, analgesic activity, etc.). In table 2 below, these probabilities are reported for each behavioral effect measured as described in Table 1 below.
Provided compounds were dissolved in a mixture of Pharmasolve™ (N-methyl-2-pyrrolidone), polyethylene glycol and propylene glycol, and were injected i.p. 15 min. before the behavioral test. For each compound, injections were administered at 3 different doses. For each behavioral effect measured, results for the 3.0 mg/kg dose are presented. The potency of many of the compounds in the table was also determined in the SmartCube™ system. Test compounds were routinely examined at dose levels of 0.3, 1, 3 and 10 mg per kg (mpk), although the dose range was increased or decreased, if necessary, to obtain a full dose response curve. A compound's minimal effective dose (MED) is a measure of the compound's potency. The MED was defined as the dose (in mpk) having 45% or more total activity in SmartCube. If only one dose was tested, that dose is shown in the MED column of Table 2 even though the dose is not known to be the MED.

[1] abbreviates: SmartCube class probability, hydrochloride, 3 mg/kg.
Setting [2] is: SmartCube class probability, 3 mg/kg.
Setting [3] is: probability that activity matches this class of agents.
Where [4] appears, read: probability that activity matches this class of agents, hydrochloride, 3 mg/kg.

Structures are written as SMILES. Counter-ions that a name gives are not always drawn.

For `CNC1CCc2sc(-c3ccccc3)cc2C1.Cl` (single isomer, unassigned) [Compound 256, N-methyl-2-phenyl-4,5,6,7-tetrahydrobenzothiophen-5-amine hydrochloride], the minimal effective dose was more than 3 mg/kg. Where the note is “SmartCube class probability”, the AD result was “ND (^ <4%)”, the AG result is listed as “ND (^ <4%)”, the AN result is “ND (^ <4%)” and the AP result is recorded as “ND (^ <4%)”. In addition, under “SmartCube class probability”, the AX entry is reported as “ND (^ <4%)”, the CE entry is listed as “ND (^ <4%)”, the HL result is “ND (^ <4%)” and the MS entry was “ND (^ <4%)”. Also, under “SmartCube class probability”, the PS entry is on record as “ND (^ <4%)” and the SH result is given as “ND (^ <4%)”. Further, the UK entry under setting [1] was “+ (≥4%)”.
As to `CC1(N2CCCC2)CCc2ccsc2C1` (single isomer, unassigned) [Compound 275, 1-(6-methyl-4,5,6,7-tetrahydrobenzo[b]thiophen-6-yl)pyrrolidine], the minimal effective dose came to 3 mg/kg. For the setting “SmartCube class probability”, the AD entry is on record as “ND (^ <4%)”, the AG result was “ND (^ <4%)”, the AN result is “ND (^ <4%)” and the AP entry was “ND (^ <4%)”. For the same molecule, under “SmartCube class probability”, the CE entry is given as “ND (^ <4%)”, the HL result is given as “ND (^ <4%)”, the MS entry is reported as “ND (^ <4%)” and the SH result is listed as “ND (^ <4%)”. Where the note is “SmartCube class probability”, the UK result is “ND (^ <4%)”. Under setting [2], the AX entry is “ND (^ <4%)” and the PS entry was “++++ (≥74%)”.
With `CNC1CCc2sc(C)cc2C1` (single isomer, unassigned) [Compound 223, N, 2-dimethyl-4,5,6,7-tetrahydrobenzothiophen-5-amine hydrochloride], the minimal effective dose is more than 3 mg/kg. In addition, under “SmartCube class probability”, the AD entry is given as “ND (^ <4%)”, the AG result is reported as “ND (^ <4%)”, the AN result was “ND (^ <4%)” and the AX result was “ND (^ <4%)”. Besides, where the note is “SmartCube class probability”, the CE result was “ND (^ <4%)”, the HL result is recorded as “ND (^ <4%)”, the MS result was “ND (^ <4%)” and the PS entry is reported as “ND (^ <4%)”. Further, the SH entry (SmartCube class probability) was “ND (^ <4%)”. Under setting [1], the AP result is listed as “ND (^ <4%)” and the UK result is on record as “++ (≥24%)”.
`Cc1scc2c1CCC(N)C2` (single isomer, unassigned) [Compound 165, 1-methyl-4,5,6,7-tetrahydro-2-benzothiophen-5-amine hydrochloride] yielded an MED of 3 mpk. Where the note is “SmartCube class probability”, the AG result is “ND (^ <4%)”, the AN result is recorded as “ND (^ <4%)”, the AP entry was “ND (^ <4%)” and the AX result is recorded as “ND (^ <4%)”. Besides, for the setting “SmartCube class probability”, the CE result was “ND (^ <4%)”, the MS entry is listed as “ND (^ <4%)”, the PS result is “ND (^ <4%)” and the SH result was “ND (^ <4%)”. The UK result (SmartCube class probability) is “ND (^ <4%)”. Besides, under setting [1], the AD entry was “ND (^ <4%)” and the HL result was “++++ (≥74%)”.
In the case of `CNC1(C)CCc2c(csc2C)C1` (single isomer, unassigned) [Compound 150, N, 1,5-trimethyl-6,7-dihydro-4H-2-benzothiophen-5-amine hydrochloride], the MED is given as 3 mpk. Besides, under “SmartCube class probability”, the AD entry was “ND (^ <4%)”, the AG entry was “ND (^ <4%)”, the AN result was “ND (^ <4%)” and the AP result is on record as “ND (^ <4%)”. For the same molecule, where the note is “SmartCube class probability”, the AX entry was “ND (^ <4%)”, the CE result is given as “ND (^ <4%)”, the MS result was “ND (^ <4%)” and the SH entry is listed as “ND (^ <4%)”. The UK entry (SmartCube class probability) is “ND (^ <4%)”. For the same molecule, under setting [1], the HL entry was “+++ (≥49%)” and the PS result is given as “++ (≥24%)”.
For `CC1(N)CCc2c(C(F)(F)F)csc2C1.Cl` (single isomer, unassigned) [Compound 242, 6-methyl-3-(trifluoromethyl)-5,7-dihydro-4H-benzothiophen-6-amine hydrochloride], the MED is 3 mpk. Also, for the setting “SmartCube class probability”, the AG result is “ND (^ <4%)”, the AN result is on record as “ND (^ <4%)”, the AP entry is “ND (^ <4%)” and the AX result was “ND (^ <4%)”. Further, for the setting “SmartCube class probability”, the CE entry is “ND (^ <4%)”, the HL result is reported as “ND (^ <4%)”, the MS result is “ND (^ <4%)” and the PS result is “ND (^ <4%)”. For the same molecule, the SH entry (SmartCube class probability) is “ND (^ <4%)”. Further, under setting [1], the AD result is listed as “+++ (≥49%)” and the UK result was “ND (^ <4%)”.
`CC1(N)CCc2ccsc2C1` (single isomer, unassigned) [Compound 112, 6-methyl-5,7-dihydro-4H-benzothiophen-6-amine hydrochloride]: where the note is “hydrochloride”, the “MED (minimal effective dose)” value is reported as more than 3 mpk. Under setting [3], the AG result was “ND (^ <4%)”, the AN result is given as “ND (^ <4%)”, the AP result was “ND (^ <4%)” and the CE result is “ND (^ <4%)”. For the same molecule, under setting [3], the HL entry is on record as “ND (^ <4%)”, the MS entry is on record as “ND (^ <4%)”, the SH entry is reported as “ND (^ <4%)” and the UK entry is recorded as “ND (^ <4%)”. Under setting [4], the AD result is “+ (≥4%)”, the AX result is “+ (≥4%)” and the PS entry is on record as “ND (^ <4%)”.
As to `CNC1COc2cscc2C1` (single isomer, unassigned) [Compound 51, N-methyl-3,4-dihydro-2H-thieno[3,4-b]pyran-3-amine hydrochloride], the “MED (minimal effective dose)” value (hydrochloride) is on record as more than 10 mpk. Besides, under setting [3], the AD result is recorded as “ND (^ <4%)”, the AG entry was “ND (^ <4%)”, the AN entry is listed as “ND (^ <4%)” and the CE entry is on record as “ND (^ <4%)”. Besides, under setting [3], the HL entry is listed as “ND (^ <4%)”, the MS entry is listed as “ND (^ <4%)”, the PS entry is listed as “ND (^ <4%)” and the SH result is given as “ND (^ <4%)”. Also, the UK result under setting [3] is reported as “+ (≥4%)”. For the same molecule, under setting [4], the AP result is “ND (^ <4%)” and the AX entry is listed as “ND (^ <4%)”.
Turning to `Cc1scc2c1CC(N)CC2` (single isomer, unassigned) [Compound 163, 3-methyl-4,5,6,7-tetrahydro-2-benzothiophen-5-amine hydrochloride], under “SmartCube class probability”, the AD result was “ND (^ <4%)”, the AG result is recorded as “ND (^ <4%)”, the AN result was “ND (^ <4%)” and the AP entry is on record as “ND (^ <4%)”. Under “SmartCube class probability”, the CE result is “ND (^ <4%)”, the HL entry was “ND (^ <4%)”, the MS result was “ND (^ <4%)” and the PS entry is listed as “ND (^ <4%)”. Also, under “SmartCube class probability”, the SH result was “ND (^ <4%)” and the UK entry was “+ (≥4%)”. Also, under setting [1], the AX entry was “ND (^ <4%)”. Besides, the MED (hydrochloride) is on record as more than 3 mpk.
Consider `CNC1CCCc2cscc2C1` (single isomer, unassigned) [Compound 170, N-methyl-5,6,7,8-tetrahydro-4H-cyclohepta[c]thiophen-5-amine hydrochloride], for which, under “SmartCube class probability”, the AD entry is recorded as “ND (^ <4%)”, the AG entry is listed as “ND (^ <4%)”, the AN result was “ND (^ <4%)” and the CE entry is listed as “ND (^ <4%)”. Moreover, for the setting “SmartCube class probability”, the HL result is listed as “ND (^ <4%)”, the MS entry is “ND (^ <4%)”, the PS result is listed as “ND (^ <4%)” and the SH result is on record as “ND (^ <4%)”. Also, under setting [1], the AP result is on record as “+++ (≥49%)”, the AX result is “++ (≥24%)” and the UK entry was “ND (^ <4%)”. For the same molecule, for the setting “hydrochloride”, the MED amounted to 1 mpk.
